Assay results taken from publication PMC5218480 (PLoS ONE, 2017).

Tested on: MV-4-11 cells
Test: Gene expression microarray analysis (Affymetrix PrimeView) and GSEA
Assay type: cell-based, human
Parameters: RFU PODN (11730768_x_at) / Fold change /veh PODN (11730768_x_at) / RFU LINC00158 (11744669_a_at) / Fold change /veh LINC00158 (11744669_a_at) / RFU DUSP10 (11751237_a_at) / Fold change /veh DUSP10 (11751237_a_at) / RFU ID3 (11757404_x_at) / Fold change /veh ID3 (11757404_x_at) / RFU PLEKHG5 (11737974_s_at) / Fold change /veh PLEKHG5 (11737974_s_at) / RFU LRRC4B (11730491_at) / Fold change /veh LRRC4B (11730491_at) / RFU GIMAP4 (11747438_a_at) / Fold change /veh GIMAP4 (11747438_a_at) / RFU KRT8 (11758183_x_at) / Fold change /veh KRT8 (11758183_x_at) / RFU CNN1 (11734310_a_at) / Fold change /veh CNN1 (11734310_a_at) / RFU VPS37D (11726825_at) / Fold change /veh VPS37D (11726825_at) / RFU C10orf10 (11716522_x_at) / Fold change /veh C10orf10 (11716522_x_at) / RFU KIR2DL2 /// KIR2DL4 /// KIR2DL5A /// KIR2DL5B /// KIR2DS1 /// KIR2DS2 /// KIR2DS3 /// KIR2DS4 /// KIR3DL3 /// KIR3DL3 /// KIR3DS1 (11738374_at) / Fold change /veh KIR2DL2 /// KIR2DL4 /// KIR2DL5A /// KIR2DL5B /// KIR2DS1 /// KIR2DS2 /// KIR2DS3 /// KIR2DS4 /// KIR3DL3 /// KIR3DL3 /// KIR3DS1 (11738374_at) / RFU C1QL1 (11718748_at) / Fold change /veh C1QL1 (11718748_at) / RFU TMPRSS4 (11747572_a_at) / Fold change /veh TMPRSS4 (11747572_a_at) / RFU HAMP (11756126_x_at) / Fold change /veh HAMP (11756126_x_at) / RFU RNFT2 (11725882_a_at) / Fold change /veh RNFT2 (11725882_a_at) / RFU NR4A2 (11747474_a_at) / Fold change /veh NR4A2 (11747474_a_at) / RFU ABCC12 (11746883_a_at) / Fold change /veh ABCC12 (11746883_a_at) / RFU TMEM136 (11760407_x_at) / Fold change /veh TMEM136 (11760407_x_at) / RFU CLDN22 /// WWC2 (11732394_at) / Fold change /veh CLDN22 /// WWC2 (11732394_at) / RFU HLA-DPB1 (11760878_x_at) / Fold change /veh HLA-DPB1 (11760878_x_at) / RFU SPINT1 (11716480_a_at) / Fold change /veh SPINT1 (11716480_a_at) / RFU GAP43 (11754022_s_at) / Fold change /veh GAP43 (11754022_s_at) / RFU A4GNT (11735810_at) / Fold change /veh A4GNT (11735810_at) / RFU PRB3 (11715151_x_at) / Fold change /veh PRB3 (11715151_x_at) / RFU TUBB4B (11761932_at) / Fold change /veh TUBB4B (11761932_at) / RFU CAPN14 (11732068_a_at) / Fold change /veh CAPN14 (11732068_a_at) / RFU TMCC2 (11721928_a_at) / Fold change /veh TMCC2 (11721928_a_at) / RFU IRGQ (11745062_a_at) / Fold change /veh IRGQ (11745062_a_at) / RFU FAM174B (11720279_a_at) / Fold change /veh FAM174B (11720279_a_at) / RFU TMPRSS4 (11748680_a_at) / Fold change /veh TMPRSS4 (11748680_a_at) / RFU FAM212B (11763350_a_at) / Fold change /veh FAM212B (11763350_a_at) / RFU PLEKHG5 (11743358_a_at) / Fold change /veh PLEKHG5 (11743358_a_at) / RFU ZSCAN30 (11745921_a_at) / Fold change /veh ZSCAN30 (11745921_a_at) / RFU CMKLR1 (11741424_a_at) / Fold change /veh CMKLR1 (11741424_a_at) / RFU LOC101060620 /// MAPK8IP1 (11723275_at) / Fold change /veh LOC101060620 /// MAPK8IP1 (11723275_at) / RFU SPTSSB (11747773_x_at) / Fold change /veh SPTSSB (11747773_x_at) / RFU PRSS12 (11739890_at) / Fold change /veh PRSS12 (11739890_at) / RFU BIN1 (11741810_x_at) / Fold change /veh BIN1 (11741810_x_at) / RFU WNT11 (11732464_a_at) / Fold change /veh WNT11 (11732464_a_at) / RFU C10orf10 (11716521_a_at) / Fold change /veh C10orf10 (11716521_a_at) / RFU C5orf56 (11738089_at) / Fold change /veh C5orf56 (11738089_at) / RFU CYB561 (11721691_x_at) / Fold change /veh CYB561 (11721691_x_at) / RFU ANKRD19P (11752326_a_at) / Fold change /veh ANKRD19P (11752326_a_at) / RFU OR2T12 /// OR2T33 /// OR2T8 (11738714_s_at) / Fold change /veh OR2T12 /// OR2T33 /// OR2T8 (11738714_s_at) / RFU VCAN (11748164_a_at) / Fold change /veh VCAN (11748164_a_at) / RFU JSRP1 (11732532_at) / Fold change /veh JSRP1 (11732532_at) / RFU KRTAP10-11 (11738290_x_at) / Fold change /veh KRTAP10-11 (11738290_x_at) / RFU MYO3A (11730013_a_at) / Fold change /veh MYO3A (11730013_a_at) / RFU EBF3 (11725865_a_at) / Fold change /veh EBF3 (11725865_a_at) / RFU CAMK2N1 (11719241_x_at) / Fold change /veh CAMK2N1 (11719241_x_at) / RFU C5orf56 (11738088_a_at) / Fold change /veh C5orf56 (11738088_a_at) / RFU OLFML3 (11715873_a_at) / Fold change /veh OLFML3 (11715873_a_at) / RFU LOC100653217 /// NTM (11731650_a_at) / Fold change /veh LOC100653217 /// NTM (11731650_a_at) / RFU MAPK11 (11762145_a_at) / Fold change /veh MAPK11 (11762145_a_at) / RFU FIZ1 (11724087_x_at) / Fold change /veh FIZ1 (11724087_x_at) / RFU OASL (11726364_x_at) / Fold change /veh OASL (11726364_x_at) / RFU SOX15 (11748057_x_at) / Fold change /veh SOX15 (11748057_x_at) / RFU CD79A (11719716_a_at) / Fold change /veh CD79A (11719716_a_at) / RFU HIST1H1D (11736915_at) / Fold change /veh HIST1H1D (11736915_at) / RFU CASKIN2 (11723855_a_at) / Fold change /veh CASKIN2 (11723855_a_at) / RFU LOC730098 (11760151_x_at) / Fold change /veh LOC730098 (11760151_x_at) / RFU OR4N2 (11742367_at) / Fold change /veh OR4N2 (11742367_at) / RFU PRRT2 (11749266_a_at) / Fold change /veh PRRT2 (11749266_a_at) / RFU SNX32 (11753110_a_at) / Fold change /veh SNX32 (11753110_a_at) / RFU CDHR5 (11726645_a_at) / Fold change /veh CDHR5 (11726645_a_at) / RFU RCAN1 (11760418_a_at) / Fold change /veh RCAN1 (11760418_a_at) / RFU FAM167A (11723789_a_at) / Fold change /veh FAM167A (11723789_a_at) / RFU FAM26E (11764081_at) / Fold change /veh FAM26E (11764081_at) / RFU ISYNA1 (11749810_s_at) / Fold change /veh ISYNA1 (11749810_s_at) / RFU ACY1 (11761880_at) / Fold change /veh ACY1 (11761880_at) / RFU 11764098_at / Fold change /veh 11764098_at / RFU SAMD14 (11745864_x_at) / Fold change /veh SAMD14 (11745864_x_at) / RFU NPB (11741838_a_at) / Fold change /veh NPB (11741838_a_at) / RFU TMPRSS6 (11731388_a_at) / Fold change /veh TMPRSS6 (11731388_a_at) / RFU KRTAP10-2 (11738614_at) / Fold change /veh KRTAP10-2 (11738614_at) / RFU ARHGAP8 /// PRR5-ARHGAP8 (11727945_x_at) / Fold change /veh ARHGAP8 /// PRR5-ARHGAP8 (11727945_x_at) / RFU KRTAP5-7 /// NADSYN1 (11734609_at) / Fold change /veh KRTAP5-7 /// NADSYN1 (11734609_at) / RFU RASL12 (11751679_a_at) / Fold change /veh RASL12 (11751679_a_at) / RFU CDKN2B (11736163_a_at) / Fold change /veh CDKN2B (11736163_a_at) / RFU PRF1 (11729649_at) / Fold change /veh PRF1 (11729649_at) / RFU, ZNF638 /// ZNF638-IT1 / Fold change vs veh, ZNF638 /// ZNF638-IT1 / RFU, PANK3 / Fold change vs veh, PANK3 / RFU, SH3YL1 / Fold change vs veh, SH3YL1 / RFU, ZEB2 / Fold change vs veh, ZEB2 / RFU, NRIP1 / Fold change vs veh, NRIP1 / RFU, PTTG1IP / Fold change vs veh, PTTG1IP / RFU, CAPN2 / Fold change vs veh, CAPN2 / RFU, MED14 / Fold change vs veh, MED14 / RFU, SNORA58 / Fold change vs veh, SNORA58 / RFU, C1orf63 / Fold change vs veh, C1orf63 / RFU, LRRFIP1 / Fold change vs veh, LRRFIP1 / RFU, NDUFAF7 / Fold change vs veh, NDUFAF7 / RFU, SLC12A2 / Fold change vs veh, SLC12A2 / RFU, IBTK / Fold change vs veh, IBTK / RFU, ESF1 / Fold change vs veh, ESF1 / Fold change vs veh, TMEM50B / RFU, TAOK1 / Fold change vs veh, TAOK1 / RFU, ACBD3 / Fold change vs veh, ACBD3 / RFU, TMA16 / Fold change vs veh, TMA16 / RFU, RWDD3 / Fold change vs veh, RWDD3 / RFU, BCAT1 / Fold change vs veh, BCAT1 / RFU, EDEM3 / Fold change vs veh, EDEM3 / RFU, TMEM33 / Fold change vs veh, TMEM33 / RFU, WDR75 / Fold change vs veh, WDR75 / RFU, AHCTF1 / Fold change vs veh, AHCTF1 / RFU, TFRC / Fold change vs veh, TFRC / RFU, ZDHHC17 / Fold change vs veh, ZDHHC17 / RFU, NOM1 / Fold change vs veh, NOM1 / RFU, ARL8B / Fold change vs veh, ARL8B / RFU, ZBTB11 / Fold change vs veh, ZBTB11 / RFU, TAMM41 / Fold change vs veh, TAMM41 / RFU, KIAA1704 /// LOC100996395 / Fold change vs veh, KIAA1704 /// LOC100996395 / RFU, ING1 / Fold change vs veh, ING1 / RFU, TRMT61B / Fold change vs veh, TRMT61B / RFU, FUBP3 / Fold change vs veh, FUBP3 / RFU, TP53 / Fold change vs veh, TP53 / RFU, TNKS2 / Fold change vs veh, TNKS2 / RFU, ZFP14 / Fold change vs veh, ZFP14 / RFU, ACTR2 / Fold change vs veh, ACTR2 / RFU, PPP3R1 / Fold change vs veh, PPP3R1 / RFU, PIK3R1 / Fold change vs veh, PIK3R1 / RFU, HNRNPA1 / Fold change vs veh, HNRNPA1 / RFU, RNF170 / Fold change vs veh, RNF170 / RFU, ZNF28 / Fold change vs veh, ZNF28 / RFU, RNGTT / Fold change vs veh, RNGTT / RFU, OGT / Fold change vs veh, OGT / RFU, BRD1 / Fold change vs veh, BRD1 / RFU, MARS / Fold change vs veh, MARS / RFU, ZNF655 / Fold change vs veh, ZNF655 / RFU, FAHD1 / Fold change vs veh, FAHD1 / RFU, BDP1 / Fold change vs veh, BDP1 / RFU, LRRCC1 / Fold change vs veh, LRRCC1 / RFU, ARID1A / Fold change vs veh, ARID1A / RFU, ZNF146 / Fold change vs veh, ZNF146 / RFU, ZNF330 / Fold change vs veh, ZNF330 / RFU, GPN3 / Fold change vs veh, GPN3 / RFU, C9orf123 / Fold change vs veh, C9orf123 / RFU, N4BP2L2 / Fold change vs veh, N4BP2L2 / RFU, ARFIP1 / Fold change vs veh, ARFIP1 / RFU, FAM179B / Fold change vs veh, FAM179B / RFU, BCL10 / Fold change vs veh, BCL10 / RFU, UHRF1BP1L / Fold change vs veh, UHRF1BP1L / RFU, BET1 / Fold change vs veh, BET1 / RFU, CNOT2 / Fold change vs veh, CNOT2 / RFU, ZNF268 / Fold change vs veh, ZNF268 / Fold change vs veh, ZNF507 / RFU, DGCR2 / Fold change vs veh, DGCR2 / RFU, WDSUB1 / Fold change vs veh, WDSUB1 / Fold change vs veh, HSP90B1 /// MIR3652 / RFU, ADSS / Fold change vs veh, ADSS / RFU, GK / Fold change vs veh, GK / RFU, ZNF148 / Fold change vs veh, ZNF148 / RFU, TAF9 / Fold change vs veh, TAF9 / RFU, SLC1A5 / Fold change vs veh, SLC1A5 / RFU, SLMO2 / Fold change vs veh, SLMO2 / RFU, ABCC4 / Fold change vs veh, ABCC4 / RFU, LOC101060439 /// RAP1B / Fold change vs veh, LOC101060439 /// RAP1B / RFU, RFX7 / Fold change vs veh, RFX7 / RFU, GTPBP10 / Fold change vs veh, GTPBP10 / RFU, CNEP1R1 / Fold change vs veh, CNEP1R1 / RFU, BIVM-ERCC5 /// ERCC5 / Fold change vs veh, BIVM-ERCC5 /// ERCC5 / RFU, ILF3 / Fold change vs veh, ILF3 / RFU 11762660_at / Fold change /veh 11762660_at / RFU VCAN (11757783_s_at) / Fold change /veh VCAN (11757783_s_at) / RFU DDX43 (11728927_at) / Fold change /veh DDX43 (11728927_at) / RFU KRT8 (11758188_x_at) / Fold change /veh KRT8 (11758188_x_at) / RFU NKD1 (11759106_at) / Fold change /veh NKD1 (11759106_at) / RFU SRD5A1 (11742802_a_at) / Fold change /veh SRD5A1 (11742802_a_at) / RFU TPSAB1 /// TPSB2 (11721975_s_at) / Fold change /veh TPSAB1 /// TPSB2 (11721975_s_at) / RFU GSTM3 (11746129_a_at) / Fold change /veh GSTM3 (11746129_a_at) / RFU IL23R (11737362_x_at) / Fold change /veh IL23R (11737362_x_at) / RFU TMEM51 (11727254_a_at) / Fold change /veh TMEM51 (11727254_a_at) / RFU PIWIL2 (11732686_x_at) / Fold change /veh PIWIL2 (11732686_x_at) / RFU ORM1 (11744905_x_at) / Fold change /veh ORM1 (11744905_x_at) / RFU CCDC152 (11743942_at) / Fold change /veh CCDC152 (11743942_at) / RFU ECM1 (11717891_a_at) / Fold change /veh ECM1 (11717891_a_at) / RFU IL23R (11748794_a_at) / Fold change /veh IL23R (11748794_a_at) / RFU TNFAIP8L3 (11732012_x_at) / Fold change /veh TNFAIP8L3 (11732012_x_at) / RFU MBOAT4 (11741988_at) / Fold change /veh MBOAT4 (11741988_at) / RFU 11764193_at / Fold change /veh 11764193_at / RFU TMEM53 (11763286_at) / Fold change /veh TMEM53 (11763286_at) / RFU MAGEB2 (11727129_at) / Fold change /veh MAGEB2 (11727129_at) / RFU TMEM200A (11744735_a_at) / Fold change /veh TMEM200A (11744735_a_at) / RFU CCDC152 (11751479_a_at) / Fold change /veh CCDC152 (11751479_a_at) / RFU FAM211A (11726209_a_at) / Fold change /veh FAM211A (11726209_a_at) / RFU RGS16 (11746705_a_at) / Fold change /veh RGS16 (11746705_a_at) / RFU VCAN (11755009_s_at) / Fold change /veh VCAN (11755009_s_at) / RFU RHOB (11743442_s_at) / Fold change /veh RHOB (11743442_s_at) / RFU RGS16 (11720943_a_at) / Fold change /veh RGS16 (11720943_a_at) / RFU RGS16 (11720944_at) / Fold change /veh RGS16 (11720944_at) / RFU, VPS4B / Fold change vs veh, VPS4B / RFU, CREB1 / Fold change vs veh, CREB1 / RFU, DNAJC13 / Fold change vs veh, DNAJC13 / RFU, GNAQ / Fold change vs veh, GNAQ / RFU, CDK5R1 / Fold change vs veh, CDK5R1 / RFU, ZRANB3 / Fold change vs veh, ZRANB3 / RFU, CUL4A / Fold change vs veh, CUL4A / RFU, CCNY / Fold change vs veh, CCNY / RFU, UFL1 / Fold change vs veh, UFL1 / RFU, COG3 / Fold change vs veh, COG3 / RFU, DIAPH2 / Fold change vs veh, DIAPH2 / RFU, SKA2 / Fold change vs veh, SKA2 / RFU, AFF3 / Fold change vs veh, AFF3 / RFU, LMF1 / Fold change vs veh, LMF1 / RFU, IPO11 / Fold change vs veh, IPO11 / RFU, DFFB / Fold change vs veh, DFFB / RFU, FOXP1 / Fold change vs veh, FOXP1 / RFU, CARD8 / Fold change vs veh, CARD8 / RFU, STRN3 / Fold change vs veh, STRN3 / RFU, ADK / Fold change vs veh, ADK / RFU, RASSF2 / Fold change vs veh, RASSF2 / RFU, WIPF1 / Fold change vs veh, WIPF1 / RFU, LARP1B / Fold change vs veh, LARP1B / RFU, RASA1 / Fold change vs veh, RASA1 / RFU, RB1 / Fold change vs veh, RB1 / RFU, PPFIA1 / Fold change vs veh, PPFIA1 / RFU, MAT2A / Fold change vs veh, MAT2A / RFU, CCT5 / Fold change vs veh, CCT5 / RFU, WDR92 / Fold change vs veh, WDR92 / RFU, CUX1 / Fold change vs veh, CUX1 / RFU, TTC7A / Fold change vs veh, TTC7A / RFU, TMEM135 / Fold change vs veh, TMEM135 / RFU, DEPTOR / Fold change vs veh, DEPTOR / RFU, CPM / Fold change vs veh, CPM / RFU, DNAJB6 / Fold change vs veh, DNAJB6 / RFU, CACNA2D3 / Fold change vs veh, CACNA2D3 / RFU, DTX4 / Fold change vs veh, DTX4 / RFU, TFCP2 / Fold change vs veh, TFCP2 / RFU, GMCL1 /// GMCL1P1 / Fold change vs veh, GMCL1 /// GMCL1P1 / RFU, AEBP2 / Fold change vs veh, AEBP2 / RFU, SNHG1 /// SNORD22 /// SNORD25 /// SNORD26 /// SNORD27 /// SNORD28 /// SNORD29 /// SNORD31 / Fold change vs veh, SNHG1 /// SNORD22 /// SNORD25 /// SNORD26 /// SNORD27 /// SNORD28 /// SNORD29 /// SNORD31 / Fold change (Aza/veh), C12orf56 (ProbeSet 11735607_a_at) / Fold change (ACY-1035/veh), C12orf56 (ProbeSet 11735607_a_at) / Fold change (Aza/veh), FGFR1OP (ProbeSet 11751329_s_at) / Fold change (ACY-1035/veh), FGFR1OP (ProbeSet 11751329_s_at) / Fold change (Aza/veh), VPS36 (ProbeSet 11739960_a_at) / Fold change (ACY-1035/veh), VPS36 (ProbeSet 11739960_a_at) / RFU SYPL1 (11715823_x_at) / Fold change /veh SYPL1 (11715823_x_at) / RFU IGFBP7 (11715501_s_at) / Fold change /veh IGFBP7 (11715501_s_at) / RFU REEP3 (11722064_at) / Fold change /veh REEP3 (11722064_at) / RFU IGLL1 (11728026_x_at) / Fold change /veh IGLL1 (11728026_x_at): dose or concentration left out as unconfirmed
Conditions: MV-4-11 cells, 48 hours

## Nc1ncn([C@@H]2O[C@H](CO)[C@@H](O)[C@H]2O)c(=O)n1 [azacitidine]
  Fold change /veh VCAN (11748164_a_at): 1.17
